What was measured:
[1] = system: Salmonella typhimurium tester strains (TA1535, TA1537, TA98, TA100); assay: Ames bacterial reverse mutation assay, vapor-phase exposure by desiccator methodology; format: cell-based; conditions: for mutagenicity / toxicity of the single isomer as concluded from the Ames tests of mixture and purified material: conclusion from comparing the 71.2/28.5 trans/cis mixture with the 96.5 wt % trans material
Method: (§1) Toxological testing was undertaken as part of the evaluation of HCFO-1233zd as a blowing agent. Ames testing was performed on a blend of trans- and cis- HCFO-1233zd and purified trans- HCFO-1233zd. The Ames test is a study designed to determine if a material can interact with DNA and cause point mutations, i.e. to determine if a material is mutagenic. Many carcinogenic materials are also mutagenic and this assay is often used as a quick screen for potential to cause an adverse effect on genetic material. It utilizes several strains of bacteria (Salmonella typhimurium and E. coli) and is often routinely included when developing the toxicology profile of a substance. If a substance substantially increases the mutation rate in the bacterial tester strains, the study result is defined as positive and the test substance is considered to be mutagenic.
(§2) The purpose of the study was to evaluate the mutagenic potential of the test article vapor by measuring it ability to induce reverse mutations at selected loci of several stains of Salmonella typhimurium and at the tryptophan locus of Escherichia coli strains WP2 uvrA in the presence and absence of Aroclor-induced rat liver S9. The test system was exposed to the test article via desiccator methodology. For each replicate plating, the mean and standard deviation of the number of revertants per plate were calculated and reported. Negative and positive controls were also run.
(§3) For the test article to be evaluated positive, it must cause a dose-related increase in the mean revertants per plate of at least one tester strain over a minimum of two increasing concentrations of test article. Data for tester strains TA1535 and TA1537 were judged positive if the increase in mean revertants at the peak of the dose response is equal to or judged greater than 3.0-times the mean vehicle control value. Data sets for tester strains TA98, TA100 and WP2 uvrA were judged positive if the increase in mean revertants at the peak of the dose response is equal to or greater than 2.0-times the mean vehicle control value.

[2] = system: Escherichia coli strains WP2 uvrA (tryptophan locus); assay: as above; format: cell-based; conditions: E. coli WP2 uvrA
Method: as §1, §2, §3

Row | Compound | mutagenicity / toxicity of the single isomer as concluded from the Ames tests of mixture and purified material [1] | Ames test result (mutagenic response) ([1]; Salmonella typhimurium tester strains, presence and absence of Aroclor-induced rat liver S9) | toxicity to tester strains ([1]; Salmonella typhimurium tester strains, with and without S9) | Ames test result (mutagenic response) ([2]; presence and absence of Aroclor-induced rat liver S9) | toxicity to tester strains ([2]; with and without S9) | mutagenicity / toxicity of the single isomer as concluded from the Ames tests of mixture and purified material ([1]; listed as trans isomer)
1 | FC(F)(F)/C=C\Cl [cis-isomer, cis-1-chloro-3,3,3-trifluoropropene] | active mutagenic agent |  |  |  |  | 
2 | FC(F)(F)C=CCl [purified material, 1-chloro-3,3,3-trifluoropropene] |  | did not cause a positive mutagenic response | No toxicity was observed | did not cause a positive mutagenic response | No toxicity was observed | 
3 | FC(F)(F)/C=C/Cl [trans-isomer of 1-chloro-3,3,3-trifluoropropene, trans-1-chloro-3,3,3-trifluoropropene] | less toxic |  |  |  |  | significantly lower genotoxicity

— US9738768B2, “Blowing agent composition of hydrochlorofluoroolefin” (Arkema Inc., priority 2007, dated 2017)
